Source: BindingDB's records for patent US8940738 (Mitsubishi Tanabe Pharma, 2015)

The molecules below were run against T1, Serine/threonine-protein (Bos taurus, UniProt A0A3Q1MT31) (assay: Inhibition Assay). Details: pH 6.5; 25 °C.
T1 construct: gene GSK3B
T1 sequence (A0A3Q1MT31 1-419): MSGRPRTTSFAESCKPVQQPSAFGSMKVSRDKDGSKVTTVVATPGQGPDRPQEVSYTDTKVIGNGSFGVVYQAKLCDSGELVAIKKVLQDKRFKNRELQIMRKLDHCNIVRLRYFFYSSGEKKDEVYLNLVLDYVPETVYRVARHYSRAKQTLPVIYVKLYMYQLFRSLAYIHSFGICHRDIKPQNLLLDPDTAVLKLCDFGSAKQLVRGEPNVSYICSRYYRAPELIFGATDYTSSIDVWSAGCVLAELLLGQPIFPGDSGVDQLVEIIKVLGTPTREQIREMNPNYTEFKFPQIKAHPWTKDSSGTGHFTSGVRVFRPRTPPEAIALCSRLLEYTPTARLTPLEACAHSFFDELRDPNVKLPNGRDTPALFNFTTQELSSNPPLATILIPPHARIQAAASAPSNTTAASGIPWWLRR
Method: A mixture containing 100 mM MES-sodium hydroxide (pH 6.5), 1 mM magnesium acetate, 0.5 mM EGTA, 5 mM beta-mercaptoethanol, 0.02% Tween 20, 10% glycerol, 12 ug/ml P-GS1, 41.7 uM [gamma-32P] ATP (68 kBq/ml), bovine cerebral TPK1 and a compound shown in Table (a final mixture contained 1.7% DMSO deriving from a solution of a test compound prepared in the presence of 10% DMSO) was used as a reaction system. The phosphorylation was started by adding ATP, and the reaction was conducted at 25 C. for 2 hours, and then stopped by adding 21% perchloric acid on ice cooling. The reaction mixture was centrifuged at 12,000 rpm for 5 minutes and adsorbed on P81 paper (Whatmann), and then the paper was washed four times with 75 mM phosphoric acid, three times with water and once with acetone. The paper was dried, and the residual radioactivity was measured using a liquid scintillation counter.
C[C@@H]1COCCN1c1nc(-c2ncncc2F)cc(=O)n1C [US8940738, 2] was tested, and the IC50 was 19.7 nM. With Cn1c(N2CCOC[C@H]2CF)nc(-c2ncncc2F)cc1=O [US8940738, 3] the IC50 was 33.4 nM. Cc1nc(-c2ccc([C@H]3CN(c4nc(-c5ncncc5F)cc(=O)n4C)CCO3)cc2)no1 [US8940738, 4] was tested, and the IC50 was 8.4 nM. In the case of Cn1c(N2CCCC(c3ccc(N4CCCC4)cc3)C2)nc(-c2ncncc2F)cc1=O (centres undefined) [US8940738, 5], the IC50 is reported as 33.1 nM. In the case of Cc1cccc(N2CCN(c3nc(-c4ncncc4F)cc(=O)n3C)CC2)c1C [US8940738, 7], the IC50 is reported as 78.3 nM. COc1ccc(CCNc2nc(-c3ncncc3F)cc(=O)n2C)cc1OC [US8940738, 8] gave an IC50 of 75.3 nM. In the case of Cn1c(NCC(=O)c2ccc(Cl)cc2)nc(-c2ncncc2F)cc1=O [US8940738, 9], the IC50 is reported as 608 nM. With CN(CCc1ccc([N+](=O)[O-])cc1)c1nc(-c2ncncc2F)cc(=O)n1C [US8940738, 10] the IC50 was 165 nM. In the case of Cc1nc(-c2ccc([C@H]3CN(c4nc(-c5ccncn5)c(O)c(=O)n4C)CCO3)cc2)no1 [US8940738, 11], the IC50 is reported as 6.7 nM.
